How the values were obtained:
N-type calcium channel [1] = target: T1, N-type calcium channel (Homo sapiens, UniProt Q00975); test: Antagonistic activity on N-type calcium channel (fluorescence dye method), IMR-32 cells, in presence of 1 μM Nifedipine; format: cell-based; conditions: Table 2, 60 mM KCl stimulation, fura-2, read-out: N-type inhibition pIC50 (converted)
T1 construct: Human neuroblastoma cells IMR-32 were obtained from ATCC; host or cells: IMR-32 human neuroblastoma cells differentiated with dibutyl cAMP and bromodeoxyuridine
T1 sequence (Q00975 whole entry): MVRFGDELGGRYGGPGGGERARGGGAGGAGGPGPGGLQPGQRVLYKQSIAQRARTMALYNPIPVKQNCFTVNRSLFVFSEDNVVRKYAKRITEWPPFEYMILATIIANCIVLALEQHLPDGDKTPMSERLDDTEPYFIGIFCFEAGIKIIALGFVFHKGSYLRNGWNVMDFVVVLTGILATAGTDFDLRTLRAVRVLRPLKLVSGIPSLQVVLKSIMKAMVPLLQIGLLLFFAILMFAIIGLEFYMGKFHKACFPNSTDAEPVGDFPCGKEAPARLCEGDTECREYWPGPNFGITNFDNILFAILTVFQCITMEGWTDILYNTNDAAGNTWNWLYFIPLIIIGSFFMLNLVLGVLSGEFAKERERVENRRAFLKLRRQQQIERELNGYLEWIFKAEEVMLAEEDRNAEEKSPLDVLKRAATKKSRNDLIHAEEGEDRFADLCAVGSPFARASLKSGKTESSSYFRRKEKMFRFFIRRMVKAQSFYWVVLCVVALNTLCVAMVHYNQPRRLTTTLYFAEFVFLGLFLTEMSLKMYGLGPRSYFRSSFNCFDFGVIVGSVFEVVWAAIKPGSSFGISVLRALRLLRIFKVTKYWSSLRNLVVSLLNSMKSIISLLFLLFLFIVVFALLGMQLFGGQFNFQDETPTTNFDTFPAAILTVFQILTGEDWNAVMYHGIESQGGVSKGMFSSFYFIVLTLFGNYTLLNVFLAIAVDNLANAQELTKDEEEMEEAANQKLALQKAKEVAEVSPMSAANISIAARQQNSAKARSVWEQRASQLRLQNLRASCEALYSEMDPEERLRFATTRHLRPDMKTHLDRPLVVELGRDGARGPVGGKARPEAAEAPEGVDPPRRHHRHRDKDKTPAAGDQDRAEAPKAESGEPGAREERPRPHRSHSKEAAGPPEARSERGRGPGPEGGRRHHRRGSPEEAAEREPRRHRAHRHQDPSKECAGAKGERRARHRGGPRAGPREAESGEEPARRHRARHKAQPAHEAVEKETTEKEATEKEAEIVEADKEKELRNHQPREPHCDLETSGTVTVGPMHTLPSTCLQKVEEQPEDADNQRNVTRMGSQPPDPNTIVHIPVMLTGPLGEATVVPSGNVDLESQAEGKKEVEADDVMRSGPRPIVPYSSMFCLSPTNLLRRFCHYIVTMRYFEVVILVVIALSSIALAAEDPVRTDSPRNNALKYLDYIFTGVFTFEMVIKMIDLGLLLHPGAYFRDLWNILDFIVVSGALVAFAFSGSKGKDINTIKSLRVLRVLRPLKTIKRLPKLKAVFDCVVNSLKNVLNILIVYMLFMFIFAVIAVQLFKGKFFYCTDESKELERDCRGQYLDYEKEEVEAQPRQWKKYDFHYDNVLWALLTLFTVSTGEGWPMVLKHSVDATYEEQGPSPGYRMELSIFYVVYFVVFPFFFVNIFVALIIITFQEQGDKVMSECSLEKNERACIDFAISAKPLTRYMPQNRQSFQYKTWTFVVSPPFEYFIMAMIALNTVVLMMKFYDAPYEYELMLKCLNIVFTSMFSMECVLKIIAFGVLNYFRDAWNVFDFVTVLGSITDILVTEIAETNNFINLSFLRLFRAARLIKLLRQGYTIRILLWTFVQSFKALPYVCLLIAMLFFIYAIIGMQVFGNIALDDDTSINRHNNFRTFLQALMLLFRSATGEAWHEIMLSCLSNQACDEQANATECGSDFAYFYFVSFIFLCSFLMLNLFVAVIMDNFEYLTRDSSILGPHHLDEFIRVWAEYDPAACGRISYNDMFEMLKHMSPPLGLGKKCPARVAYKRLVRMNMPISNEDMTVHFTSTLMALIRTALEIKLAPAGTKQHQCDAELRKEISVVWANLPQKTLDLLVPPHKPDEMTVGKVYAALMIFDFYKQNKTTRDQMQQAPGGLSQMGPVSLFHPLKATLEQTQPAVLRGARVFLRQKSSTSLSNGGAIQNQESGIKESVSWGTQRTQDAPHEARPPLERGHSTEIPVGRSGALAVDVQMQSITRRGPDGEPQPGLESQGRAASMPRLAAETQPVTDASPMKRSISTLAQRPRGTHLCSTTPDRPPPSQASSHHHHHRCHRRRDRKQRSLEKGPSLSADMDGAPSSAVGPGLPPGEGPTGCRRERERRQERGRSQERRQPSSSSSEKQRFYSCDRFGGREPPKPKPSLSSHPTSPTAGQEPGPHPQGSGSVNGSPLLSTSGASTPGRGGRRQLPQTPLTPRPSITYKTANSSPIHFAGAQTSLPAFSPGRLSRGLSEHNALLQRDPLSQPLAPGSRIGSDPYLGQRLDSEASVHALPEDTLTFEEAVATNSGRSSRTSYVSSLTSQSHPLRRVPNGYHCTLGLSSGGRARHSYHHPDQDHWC
T1 sequence (P54289 25-956 partner limits assumed): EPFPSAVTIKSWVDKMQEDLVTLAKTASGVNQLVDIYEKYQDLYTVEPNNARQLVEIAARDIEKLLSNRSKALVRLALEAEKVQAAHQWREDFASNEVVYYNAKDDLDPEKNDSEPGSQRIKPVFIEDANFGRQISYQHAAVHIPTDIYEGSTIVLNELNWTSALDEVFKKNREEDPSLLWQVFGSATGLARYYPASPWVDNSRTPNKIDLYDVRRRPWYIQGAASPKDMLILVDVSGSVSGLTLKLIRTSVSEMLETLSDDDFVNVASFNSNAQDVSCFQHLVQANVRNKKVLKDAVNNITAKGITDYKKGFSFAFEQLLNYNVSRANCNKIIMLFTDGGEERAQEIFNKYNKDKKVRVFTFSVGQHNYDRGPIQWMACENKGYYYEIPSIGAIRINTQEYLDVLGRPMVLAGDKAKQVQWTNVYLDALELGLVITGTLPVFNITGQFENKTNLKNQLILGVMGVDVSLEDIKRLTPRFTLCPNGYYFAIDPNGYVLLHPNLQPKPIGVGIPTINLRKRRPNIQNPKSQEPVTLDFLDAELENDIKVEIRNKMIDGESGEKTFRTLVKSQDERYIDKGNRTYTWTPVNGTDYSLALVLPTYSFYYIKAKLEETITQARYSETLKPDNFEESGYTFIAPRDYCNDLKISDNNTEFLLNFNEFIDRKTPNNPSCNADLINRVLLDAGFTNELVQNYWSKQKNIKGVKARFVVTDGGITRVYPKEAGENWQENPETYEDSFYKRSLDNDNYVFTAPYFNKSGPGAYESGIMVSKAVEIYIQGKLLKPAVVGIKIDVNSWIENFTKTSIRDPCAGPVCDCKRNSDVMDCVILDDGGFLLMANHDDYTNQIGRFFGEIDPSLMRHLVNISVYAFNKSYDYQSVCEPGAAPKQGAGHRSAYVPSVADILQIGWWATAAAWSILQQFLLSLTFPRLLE
T1 sequence (P54289 957-1103 partner limits assumed): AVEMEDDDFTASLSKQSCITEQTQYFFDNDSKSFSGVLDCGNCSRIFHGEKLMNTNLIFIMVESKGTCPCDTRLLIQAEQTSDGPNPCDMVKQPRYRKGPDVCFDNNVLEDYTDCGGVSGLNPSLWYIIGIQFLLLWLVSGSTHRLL
T1 sequence (P54284 whole entry partner): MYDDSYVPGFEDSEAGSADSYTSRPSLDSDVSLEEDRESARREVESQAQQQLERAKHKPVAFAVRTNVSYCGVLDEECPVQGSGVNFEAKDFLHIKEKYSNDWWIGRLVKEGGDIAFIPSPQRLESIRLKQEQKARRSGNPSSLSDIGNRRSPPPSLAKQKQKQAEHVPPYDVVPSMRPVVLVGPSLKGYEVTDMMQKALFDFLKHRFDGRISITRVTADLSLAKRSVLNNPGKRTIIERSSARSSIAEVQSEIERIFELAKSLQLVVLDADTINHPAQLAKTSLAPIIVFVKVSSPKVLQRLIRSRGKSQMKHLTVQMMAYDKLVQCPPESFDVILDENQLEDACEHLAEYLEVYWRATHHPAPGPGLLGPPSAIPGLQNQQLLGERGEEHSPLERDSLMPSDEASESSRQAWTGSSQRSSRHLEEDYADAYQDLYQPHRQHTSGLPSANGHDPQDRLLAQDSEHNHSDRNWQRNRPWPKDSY
Method: Human neuroblastoma cells IMR-32 were obtained from ATCC (American Type Culture Collection). The medium used was a Phenol Red-free Eagle minimum essential medium (GIBCO) containing earle's salts supplement, 2 mM of L-glutamine (GIBCO), 1 mM of sodium pyruvate (pH 6.5) (GIBCO), antibiotic/antimicotic mixture (GIBCO) and 10% fetal calf serum (Cell Culture Technologies). 3 ml of 1×10^5/ml IMR-32 cells were spread on a glass dish (Iwaki Glass Co., Ltd.) having a diameter of 35 mm which was treated with poly-D-lysin (SIGMA) and collagen (COLLAGEN VITROGEN 100, Collagen Colo.). After the culture for 2 days, 1 mM (final concentration) of dibutyl cAMP and 2.5 μM of bromodeoxyuridine (SIGMA) were added. After the culture for additional 10 to 14 days, the cells were subjected to the activity determination. […]
Then the medium was replaced with Phenol Red-free Eagle minimum essential medium (GIBCO) containing earle's salts supplement, from which fura-2/AM had been removed. […] Antagonistic activity on N-type calcium channel was determined and analyzed by using a fluorescence microscope (Nikon Corporation) and an image analysis device ARGUS 50 (Hamamatsu Photonics). […]

N-type calcium channel [2] = target: T1, N-type calcium channel; test: Antagonistic activity on N-type calcium channel (fluorescence dye method), IMR-32 cells, changed procedure; format: cell-based; conditions: Table 3, 60 mM KCl stimulation, calculated from the inhibition rates, read-out: N-type inhibition pIC50 (converted)
Method: Human neuroblastoma cells IMR-32 were obtained from ATCC (American Type Culture Collection). The medium used was a Phenol Red-free Eagle minimum essential medium (GIBCO) containing earle's salts supplement, 2 mM of L-glutamine (GIBCO), 1 mM of sodium pyruvate (pH 6.5) (GIBCO), antibiotic/antimicotic mixture (GIBCO) and 10% fetal calf serum (Cell Culture Technologies). 3 ml of 1×10^5/ml IMR-32 cells were spread on a glass dish (Iwaki Glass Co., Ltd.) having a diameter of 35 mm which was treated with poly-D-lysin (SIGMA) and collagen (COLLAGEN VITROGEN 100, Collagen Colo.). After the culture for 2 days, 1 mM (final concentration) of dibutyl cAMP and 2.5 μM of bromodeoxyuridine (SIGMA) were added. After the culture for additional 10 to 14 days, the cells were subjected to the activity determination. The medium for IMR-32 cells thus prepared was replaced with 1 ml of Phenol Red-free Eagle minimum essential medium (GIBCO) containing 1 ml of 10 μM fura-2/AM (Dojin Kagaku, Co.) and earle's salts supplement, and the incubation was conducted at 25° C. for 1 hour.
Then the medium was replaced with Phenol Red-free Eagle minimum essential medium (GIBCO) containing earle's salts supplement, from which fura-2/AM had been removed. After the incubation at 37° C. for 1 hour, the medium was replaced with a recording medium (20 mM of HEPES-KOH, 115 mM of NaCl, 5.4 mM of KCl, 0.8 mM of MgCl2, 1.8 mM of CaCl2 and 13.8 mM of D-glucose). Antagonistic activity on N-type calcium channel was determined and analyzed by using a fluorescence microscope (Nikon Corporation) and an image analysis device ARGUS 50 (Hamamatsu Photonics). In particular, a recording medium (20 mM of HEPES-KOH, 115 mM of NaCl, 5.4 mM of KCl, 0.8 mM of MgCl2, 1.8 mM of CaCl2 and 13.8 mM of D-glucose) containing 1 μM of Nifedipine was given to the cells by reflux by a Y-tube method. Then a stimulating agent containing 60 mM of potassium chloride was rapidly given by the Y-tube method. Thereafter stimulating agents containing 60 mM of potassium chloride and 0.1, 1 or 10 μM of test compound were successively rapidly given by the Y-tube method to determine the antagonistic activity on the channel. Finally, a stimulating agent containing 60 mM of potassium chloride and 1 μM of omega conotoxin GVIA (Peptide institute, inc.) was rapidly given by the Y-tube method to realize a condition of 100% inhibition of N-type calcium channel.
The same procedure as that of the above-described tests was repeated except for the following changes: 60 mM of potassium chloride-containing stimulating agent was rapidly given by the Y-tube method while the calcium concentration change in the cells was examined in terms of N-type calcium channel activity. […] A change in calcium concentration in the cells was determined.

| Compound | IC50 (N-type calcium channel [1]) | IC50 (N-type calcium channel [2]) |
| --- | --- | --- |
| CC1=C(C(=O)O)C(c2cccc(Cl)c2)C(C(=O)NC/C=C/c2ccccc2)=C(COCCC2CCCCC2)N1 (stereo not drawn) [Example 4, 4-(3-chlorophenyl)-6-(2-cyclohexylethoxymethyl)-2-methyl-5-(3-phenyl-2-propene-1-ylcarbamoyl)-1,4-dihydropyridine-3-carboxylic acid] | 398 nM | 794 nM |
| CC1=C(C(=O)O)C(c2cccc(Cl)c2)C(C(=O)NC/C=C/c2ccccc2)=C(COCCc2ccccc2)N1 (stereo not drawn) [Example 3, 4-(3-chlorophenyl)-2-methyl-6-(2-phenylethoxymethyl)-5-(3-phenyl-2-propene-1-ylcarbamoyl)-1,4-dihydro-pyridine-3-carboxylic acid] | 2000 nM | 2510 nM |
| CC1=C(C(=O)O)C(c2cccc(Cl)c2)C(C(=O)NCCC(c2ccccc2)c2ccccc2)=C(COCCc2ccccn2)N1 (stereo not drawn) [Example 6, 4-(3-chlorophenyl)-5-(3,3-diphenylpropylcarbamoyl)-2-methyl-6-(2-(pyridine-2-yl)ethoxy)methyl-1,4-dihydropyridine-3-carboxylic acid] |  | 2510 nM |
| COCC1=C(C(=O)OC)C(c2cccc(Cl)c2)C(C(=O)NCCC(c2ccccc2)c2ccccc2)=C(COCCN)N1 (stereo not drawn) [Example 11, Methyl 6-(2-aminoethoxy)methyl-4-(3-chlorophenyl)-5-(3,3-diphenylpropylcarbamoyl)-2-methoxymethyl-1,4-dihydropyridine-3-carboxylate] |  | 2000 nM |
